Measurements from patent US20120122908A1, “Novel C-4 Substituted Retinoids” (University of Maryland, priority 2000, published 2012).
Like-named read-outs stand apart in the source and are kept apart here.

Columns and labels:
CYP19 (aromatase) = target: T1, CYP19 (aromatase) (Homo sapiens, UniProt P11511); test: Selectivity: effect on CYP19 (aromatase); format: biochemical; conditions: concentration as high as 5 μM
T1 sequence (P11511 1-503): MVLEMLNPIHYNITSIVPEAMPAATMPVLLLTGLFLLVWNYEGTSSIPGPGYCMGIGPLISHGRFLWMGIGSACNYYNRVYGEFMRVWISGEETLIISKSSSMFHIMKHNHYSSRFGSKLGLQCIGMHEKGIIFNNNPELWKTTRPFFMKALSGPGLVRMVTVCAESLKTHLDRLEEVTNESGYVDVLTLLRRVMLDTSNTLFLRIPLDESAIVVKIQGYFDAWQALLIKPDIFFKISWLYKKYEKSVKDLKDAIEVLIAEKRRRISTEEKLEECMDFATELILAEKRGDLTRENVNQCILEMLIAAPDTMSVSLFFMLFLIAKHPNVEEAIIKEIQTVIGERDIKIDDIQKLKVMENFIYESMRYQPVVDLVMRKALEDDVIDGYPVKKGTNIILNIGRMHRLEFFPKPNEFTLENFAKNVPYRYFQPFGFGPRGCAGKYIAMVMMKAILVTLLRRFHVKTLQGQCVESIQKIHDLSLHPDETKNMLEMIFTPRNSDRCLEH
Protocol: (§1) The selectivity of the compounds of the present invention towards ATRA-4-hydroxylase was tested by measuring the effect on the key enzymes in the biosynthesis of estradiol and dehydroepiandrosterone, CYP19 (aromatase) and CYP17 (17-lyase), respectively.

CYP17 (17-lyase) = target: T2, CYP17 (17-lyase) (Homo sapiens, UniProt P05093); test: Selectivity: effect on CYP17 (17-lyase); format: biochemical; conditions: concentration as high as 5 μM
T2 sequence (P05093 1-508): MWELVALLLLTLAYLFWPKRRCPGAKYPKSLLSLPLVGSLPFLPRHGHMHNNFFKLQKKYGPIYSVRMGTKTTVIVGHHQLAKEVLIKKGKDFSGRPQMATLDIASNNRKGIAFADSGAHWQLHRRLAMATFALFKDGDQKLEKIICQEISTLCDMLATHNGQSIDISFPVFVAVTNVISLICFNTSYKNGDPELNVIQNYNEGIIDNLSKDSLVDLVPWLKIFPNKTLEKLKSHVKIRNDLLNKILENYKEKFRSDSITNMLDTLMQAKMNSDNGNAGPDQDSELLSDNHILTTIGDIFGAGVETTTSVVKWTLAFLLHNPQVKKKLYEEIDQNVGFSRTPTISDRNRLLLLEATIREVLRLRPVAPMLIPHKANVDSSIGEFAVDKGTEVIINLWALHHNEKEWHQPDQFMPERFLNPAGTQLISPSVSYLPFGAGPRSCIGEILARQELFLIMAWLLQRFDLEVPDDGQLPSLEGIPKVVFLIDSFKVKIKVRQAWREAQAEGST
Protocol: as §1

[1] = Pharmacokinetic studies in mice (plasma levels by HPLC); format: in vivo; conditions: mice, 10 mg/kg s.c.
Protocol: FIG. 18: Plasma Levels in Balb/c Mice Following Dose of 10 mg/kg body weight Given s/c.
Pharmacokinetic studies of VN/65-4 and VN/66-1 were measured in mice and were compared to VN/14-1 and VN/50A-1. Mice were dosed s.c. at 10 mg/kg using a vehicle, 45% β-cyclodextrin in water, and plasma levels were measured by HPLC. […] The results are summarized in Table 3 below and the profiles in FIG. 18.

[2] = Effect of VN/65-4 on plasma elimination of ATRA; format: in vivo; conditions: mice, VN/65-4 10 mg/kg s.c. one hour before ATRA 1.0 mg/kg s.c.
Protocol: FIG. 19: Plasma Concentration of ATRA (1 mg/kg) After a Dose of 10 mg/kg body weight of VN/65-4.
To determine the ability of VN/65-4 to delay the velocity of plasma elimination of ATRA, mice were treated s.c. with VN/65-4 (10 mg/kg). One hour later, the mice were administered s.c. ATRA (1.0 mg/kg) and sacrificed at various time points. […] From these experiments it is believed that it is possible to improve ATRA efficacy by reducing its enhanced metabolism to increase endogenous levels.

ATRA 4-hydroxylase = ATRA 4-hydroxylase (Mesocricetus auratus, UniProt A0A1U7QD41); test: Hamster liver microsome assay of ATRA metabolism (ATRA 4-hydroxylase inhibition); format: biochemical; conditions: hamster liver microsomes
Protocol: Washed hamster liver microsomes were prepared as follows: Livers are removed from sacrificed animals, rinsed in ice-cold 0.9% NaCl solution and homogenized in a 3-fold volume of 0.25 M sucrose-0.05 M Tris-HCl (pH 7.4) using a blender. Microsomes are isolated by differential centrifugation (10,000×g, 20 minutes; 100,000×g, 60 minutes; 4° C.) using a well-known technique (Van Wauwe, J.; Van Nyen, G.; Coene, M-C.; Stoppie, P.; Cols, W.; Goossens, J, Borghgraef, P.; Janssen, P A J, Liarozole, an Inhibitor of Retinoic Acid Metabolism, Exerts Retinoid-Mimetic Effects, In Vivo. J. Pharmacol. Expt. Ther. 261, 773-779, 1992). The microsomes are suspended in PBS buffer (pH 7.4), in 1 ml aliquots and stored at −70° C. until required.
The standard reaction mixture (total of 400 μl) is composed of assay buffer, 140 μl; microsomes, 100 μl ([…]); NADPH, 100 μl ([…]); and a C-4 substituted ATRA analog dissolved in DMSO, 40 μl. After a 3 minute preincubation at 37° C., the reaction is initiated by addition of 20 μl of [11,12-^3H]-ATRA (20 μCi/ml). The incubation is carried out for 30 minutes under oxygen with shaking in a water bath at 37° C. The reaction is stopped by acidification with 0.1 ml formic acid, and the samples are extracted (×2) with EtOAc (2 ml) containing 0.05% butylated hydroxyanisole. The combined organic extracts are evaporated in vacuo, dissolved in 200 μl of the mobile phase for HPLC. An aliquot is analyzed for tritium content by liquid scintillation spectrometry. Usually, >95% of the added radioactivity is recovered. Most of the samples (150 μl) are analyzed on a 10 (m C18 Bondapak column (3.9×300 mm, Millipore), eluted with a multi-linear gradient solvent system: i, MeOH—H2O—HCOOH (60:40:0.05) containing 10 mM ammonium acetate (100 (0%) and ii, MeOH (0 (100%) at 2 ml/min. The radioactivity is measured by an on-line radio-detector. The Rts of ATRA, 4-hydroxy-ATRA and 4-oxo-ATRA are determined by UV absorbance at 350 nm in separate cuvettes. Typically, 80±5% of [11, 12-^3H]ATRA is converted into the metabolites.
The C-4 substituted ATRA analogs are tested at two concentrations, 500 and 1000 nM. IC50 and Ki values are determined.
Incubation of [11,12-^3]ATRA with hamster liver microsomes as described above results in the formation of polar metabolites, including 4-hydroxy-ATRA and 4-oxo-ATRA (see FIG. 7A). […] VN/14-1RA inhibits cytochrome P450-dependent metabolism of ATRA.
Table 2B represents repeated testing of some of the compounds in Table 2A and testing on additional compounds. For comparison, the IC50 values of liarozole and ketoconazole (known inhibitors of ATRA 4-hydroxylase) were also determined.

LNCaP cells = test: LNCaP cell growth, compound in combination with ATRA; format: cell-based, human; conditions: for inhibition of proliferation of LNCaP cells: 10^−8 to 10^−5 M in combination with 10^−5 M ATRA, compared with no drug or ATRA only; for concentration(s) that prevent the LNCaP cells from increasing in number: in combination with 10^−5 M ATRA, tested 10^−8 to 10^−5 M
Protocol: LNCaP cells are androgen-dependent cell cultures. PC-3 cells are androgen independent cell culture.
LNCaP cells are transferred into ATRA-free medium 3 days prior to start of experiments. Medium consist of phenol red-free IMEM supplemented with 5% FBS and 1% P/S. Cell are then plated into 24-well culture plates (15000 cells per well) in 1 mL of same medium. After a 24-hour attachment period, the vehicle (ethanol) or ATRA (10^−5 M) alone or ATRA in combination with a novel compound at a range of concentrations are added to triplicate wells. Medium/treatments are changed every 3 days. After 9 days of treatment, cells are removed from the wells with typsin/EDTA and counted in a Coulter counter. Using well-known methods (Wouters W, Van Dun J, Dillen A, Coene M.-C, Cools W and De Coster R, Effects of liarozole, a new antitumoral compound an retinoic acid-induced inhibition of cell growth and on retinoic acid metabolism in MCF-7 breast cancer cells, Cancer Res 52: 2841-2846, 1992), one determines the inhibitory effect of the novel compounds on LNCaP cells grown with ATRA.

PC-3 tumors = test: Growth of PC-3 tumors in male nude mice; format: in vivo; conditions: PC-3 xenografts
Protocol: FIG. 20: Effect of ATRA and VN/50A-1 on PC 3 Tumor Volumes in Male Nude Mice
The effects of VN/50A-1 on tumor growth was determined in mouse xenografts and compared to ATRA as the reference treatment (FIG. 20). Mice were grouped 35 days after cell inoculation when measurable tumor volume was approximately 500 mm^3. Total tumor volume in the control mice increased 5.4-fold over 7 weeks and tumor volume in the mice treated with ATRA increased by 3.2-fold (41% reduction compared with control). In the mice treated with VN/50A-1, tumor volume increased by 3.5-fold, which was 38% reduction versus control mice, which correlated well with accumulation of ATRA in plasma and in tumors. […] VN/50A-1 is completely eliminated from plasma within 3 hour of administration to mice (see FIG. 18). The inventive compounds with longer half-lives will have favorable bioavailability and are expected to be more efficacious.

[3] = test system: ATRA 4-hydroxylase activity in LNCaP cells; test: Induction of ATRA metabolism in LNCaP cells; format: cell-based, human; conditions: LNCaP cells preincubated with 1.0 μM ATRA, 0.8 μM [3H]ATRA
Protocol: FIG. 17: Metabolism of 0.8 μM 3H-ATRA Following Induction with 1 μM ATRA in LNCaP Cells.
The potential of these cell lines to metabolize ATRA was investigated. […] LNCaP cells were preincubated with 1.0 μM ATRA for different time periods up to 48 hour. Following preincubation, ATRA metabolism was determined using 0.8 μM [11,12-^3H]ATRA. Induction of 4-hydroxylase activity ([^3H]ATRA metabolism was time-dependent with a fast onset and maximal induction achieved after a preincubation period of 18 hour (FIG. 17).

[4] = Table 2A, initial testing, read-out: IC50 Value
[5] = Table 2B, repeated testing and additional compounds, read-out: IC50 Value, Inhibition of ATRA 4-Hydroxylase

Chain of ATRA 4-hydroxylase (A0A1U7QD41 entry or part of it): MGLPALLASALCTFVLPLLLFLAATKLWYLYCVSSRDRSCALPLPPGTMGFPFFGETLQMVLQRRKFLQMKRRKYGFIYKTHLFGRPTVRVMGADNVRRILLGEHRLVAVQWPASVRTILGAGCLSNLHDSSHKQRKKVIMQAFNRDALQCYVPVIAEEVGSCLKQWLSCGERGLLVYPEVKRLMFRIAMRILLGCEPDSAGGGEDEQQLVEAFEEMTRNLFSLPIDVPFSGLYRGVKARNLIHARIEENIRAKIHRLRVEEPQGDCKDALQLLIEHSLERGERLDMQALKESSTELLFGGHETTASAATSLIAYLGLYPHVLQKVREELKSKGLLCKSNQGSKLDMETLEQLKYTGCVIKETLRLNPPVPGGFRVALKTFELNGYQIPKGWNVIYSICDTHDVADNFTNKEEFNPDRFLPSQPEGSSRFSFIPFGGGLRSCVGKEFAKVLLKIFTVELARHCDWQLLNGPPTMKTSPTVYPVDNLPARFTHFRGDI

Row | SMILES | IC50 (ATRA 4-hydroxylase; [4]) [nM] | IC50 (ATRA 4-hydroxylase; [5]) [nM] | inhibition of proliferation of LNCaP cells (LNCaP cells) | concentration(s) that prevent the LNCaP cells from increasing in number (LNCaP cells) | other results
1 | COC(=O)C=C(C)C=CC=C(C)C=CC1=C(C)C(n2ccnc2)CCC1(C)C (mixture of isomers) [VN/65-4, (±)-4-(1H-imidazol-1-yl)-13-cis-methylretinoate] | – | – | – | – | inhibition of CYP19 (aromatase) (CYP19 (aromatase)): barely inhibited; inhibition of CYP17 (17-lyase) (CYP17 (17-lyase)): barely inhibited; in vivo conversion to corresponding acid [1]: rapidly and completely converted to corresponding acid; rate of plasma elimination of ATRA [2]: delayed the rate of ATRA elimination significantly
2 | COC(=O)C=C(C)C=CC=C(C)C=CC1=C(C)C(n2cncn2)CCC1(C)C (racemic) [VN/13-1, (±)-4-(1H-1,2,4-triazol-1-yl)methyl retinoate] | 680 ± 3 | 1 ± 0.05 | – | – | –
3 | COC(=O)C=C(C)C=CC=C(C)C=CC1=C(C)C(n2cnnc2)CCC1(C)C (racemic) [VN/13-2, (±)-4-(4H-1,2,4-triazole-1-yl)methyl retinoate] | – | 10 ± 0.3 | – | – | –
4 | CC1=C(/C=C/C(C)=C/C=C/C(C)=C/C(=O)O)C(C)(C)CCC1n1cncn1 (racemic) [VN/16-1, (±)-4-(1H-1,2,4-triazol-1-yl)retinoic acid] | 880 ± 8 | 5 ± 0.25 | inhibit the proliferation of LNCaP cells better than no drug or ATRA only | 10^−5 M | –
5 | CC1=C(/C=C/C(C)=C/C=C/C(C)=C/C(=O)O)C(C)(C)CCC1n1cnnc1 (racemic) [VN/17-1] | 1620 | 25 ± 0.5 | inhibit the proliferation of LNCaP cells better than no drug or ATRA only | All concentrations | –
6 | CC1=C(/C=C/C(C)=C/C=C/C(C)=C/C(=O)O)C(C)(C)CCC1 [ATRA, All-trans retinoic acid, reference compound] | – | – | – | – | tumor weights versus control mice (PC-3 tumors): significantly (P<0.05) lower; reduction of tumor volume compared with control (PC-3 tumors; over 7 weeks): 41%; increase of total tumor volume (PC-3 tumors; over 7 weeks, control 5.4-fold): 3.2 fold; preincubation period for maximal induction of 4-hydroxylase activity [3]: 18 h
7 | Clc1cccc(C(c2ccc3[nH]cnc3c2)n2ccnc2)c1 (stereo not drawn) [Liarozole, reference compound] | – | – | inhibit the proliferation of LNCaP cells better than no drug or ATRA only | 10^−5 M | –
